Patent US11285219B2, “Peptide-oligourea hybrid compounds” (UREKA SARL, priority 2019, dated 2022)
Read-outs that look alike come from different tables or passages of the source. Numbered stars: 1 amine (or outer) side, 2 acyl side, 3 side chain; on linkers, the order of the positions; unused ones are H or OH. Bridge positions count the residues as written; N and C are the ends. Peptide text beside a SMILES is read from it. I, II: the chains in the order shown. X2 = C[C@@H](CNC(=O)N[C@@H](C)CNC(=O)N[C@@H](C)CNC(=O)N[C@@H](C)CNC(=O)[*:2])NC(=O)NC[C@H](CCC(=O)O)NC(=O)NC[C@H](Cc1ccc(O)cc1)N[*:1]; X1 = C[C@@H](CNC(=O)N[C@@H](C)CNC(=O)[*:2])NC(=O)NC[C@H](C)N[*:1]

Experiments:
[1] = molecular target: T1, mouse GLP-1 receptor endogenously expressed in βTC6 cells (Mus musculus, UniProt O35659); assay: cAMP production functional assay (HTRF), agonist activity at GLP-1R; assay type: cell-based; conditions: for Potency (%), percentage of potency (cAMP production) compared to GLP-1-G^2: Table 2; for Potency (%), percentage of potency compare to GLP-1-G^2: Table 1; for EC50: read-out: EC50 (nM), GLP-1R potency
T1 construct: host or cells: βTC6 cells
T1 sequence (O35659 22-463): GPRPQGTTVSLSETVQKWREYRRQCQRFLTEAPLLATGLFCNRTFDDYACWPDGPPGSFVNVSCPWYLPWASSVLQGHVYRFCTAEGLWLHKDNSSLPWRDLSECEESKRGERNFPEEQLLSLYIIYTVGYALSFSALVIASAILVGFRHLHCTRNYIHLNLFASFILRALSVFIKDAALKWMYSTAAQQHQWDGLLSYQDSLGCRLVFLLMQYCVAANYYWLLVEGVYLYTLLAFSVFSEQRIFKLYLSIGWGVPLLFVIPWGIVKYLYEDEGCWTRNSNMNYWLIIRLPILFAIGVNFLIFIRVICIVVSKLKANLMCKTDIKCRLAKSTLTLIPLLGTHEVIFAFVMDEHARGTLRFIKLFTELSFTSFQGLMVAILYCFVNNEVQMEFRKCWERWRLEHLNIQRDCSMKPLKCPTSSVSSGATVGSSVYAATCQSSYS
Experimental: The agonistic activity of these hybrids were obtained by functional assays using cells expressing the […] and by measuring the receptor-mediated cAMP produced (see supporting information).
In vitro pharmacology (EC50). […] Following incubation, the cells were lysed and the fluorescence acceptor (D2-labeled cAMP) and fluorescence donor (anti-cAMP antibody labeled with europium cryptate) were added.

NEP 24.11 = NEP 24.11 (Homo sapiens, UniProt P08473); assay: in vitro; conditions: pH 8
Sequence of NEP 24.11 (P08473 whole entry): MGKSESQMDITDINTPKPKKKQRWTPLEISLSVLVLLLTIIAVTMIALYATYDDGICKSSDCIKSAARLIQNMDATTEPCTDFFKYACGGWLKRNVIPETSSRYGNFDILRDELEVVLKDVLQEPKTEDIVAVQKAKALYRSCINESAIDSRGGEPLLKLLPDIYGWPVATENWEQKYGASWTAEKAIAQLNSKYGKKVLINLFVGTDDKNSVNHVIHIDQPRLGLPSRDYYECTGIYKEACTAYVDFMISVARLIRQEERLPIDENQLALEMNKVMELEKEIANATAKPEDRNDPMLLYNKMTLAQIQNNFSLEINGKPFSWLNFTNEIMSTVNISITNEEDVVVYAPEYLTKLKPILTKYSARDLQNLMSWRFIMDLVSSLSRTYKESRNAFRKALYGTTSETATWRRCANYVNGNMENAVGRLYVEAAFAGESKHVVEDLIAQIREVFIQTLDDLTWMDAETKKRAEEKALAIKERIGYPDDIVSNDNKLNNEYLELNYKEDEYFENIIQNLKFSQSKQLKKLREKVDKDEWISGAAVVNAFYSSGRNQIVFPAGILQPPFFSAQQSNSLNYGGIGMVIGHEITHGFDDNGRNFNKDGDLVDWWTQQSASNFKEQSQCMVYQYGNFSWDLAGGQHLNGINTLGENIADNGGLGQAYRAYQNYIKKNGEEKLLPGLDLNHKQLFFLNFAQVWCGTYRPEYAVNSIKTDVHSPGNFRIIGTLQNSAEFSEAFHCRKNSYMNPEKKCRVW
Experimental: Enzymatic and mouse plasma degradation studies.
Enzymatic degradation (NEP 24.11). Stock solutions of the oligomers were prepared at a concentration of 400 μM in a solution of 50 mM HEPES buffer, 50 mM NaCl, 0.05% Tween-80, pH 8.0. Stock solution of NEP 24.11 was prepared at a concentration of 100 μg/mL in water. Stability of oligomers to NEP 24.11 was assessed by conducting protease reaction in a 96-well plates at 20° C. […] Each compound was also incubated in the absence of the enzyme (12 μL of HEPES buffer and 38 μL of oligomer). At the indicated time (1, 2, 4, 6 and 22 hours) an aliquot of 10 μL was removed from each experimental reaction and pipetting into 100 μL of 1% TFA solution to quench the reaction, (t=0 min was determined using the reaction without enzyme). A portion of the quenched reaction solution was analyzed by HPLC. The time course of peptide degradation was determined by integrating the area of each peak in a series of HPLC traces.

normal mice (C57BL/6J) [2] = assay: Blood glucose experiment in healthy mice; assay type: in vivo, mouse; parameters: key to In vivo activity (indicator): + = active; +++: + + + = more active; conditions: for In vivo activity (indicator): blood glucose, mice, i.v.; for time the decrease of blood glucose is preserved after dosing / effect on blood glucose concentration: fed normal mice, 5 μg/mouse i.v.; for effect on blood glucose concentration: monitored 6 h
Experimental: In the first study, we evaluated the effect of the analogues on the blood glucose concentration of normal mice (FIG. 4). The fed mice were treated with the analogues and their blood glucose concentration was monitored before and after dosing for 6 h. […] Indeed, a decrease of blood glucose concentration is observed after 30 min and the effect is preserved for 4 h after dosing.
Blood glucose experiment in healthy mice. After the acclimation period (at least 5 days), mice (male C57BL/6J mice (Charles River laboratories) (8 weeks old, 20-25 g)) were randomized into 10 groups (n=3/group) according to their body weight. They were acutely treated via i.v. route at 10 AM (5 μg/mouse). Blood glucose was measured before dosing and at 30 min, 1, 2, 4, 6 h after dosing in fed conditions.

normal mice (C57BL/6J) [3] = assay: Intra peritoneal glucose tolerance test (IPGTT) in fasted normal mice; assay type: in vivo, mouse; conditions: for activity in IPGTT 5 min after dosing, 60 min after the glucose challenge: 65 min after dosing, compared to vehicle; for activity in IPGTT 5 min after dosing: glucose 2 g/kg i.p.
Experimental: In a second study, an IPGTT was performed 30 min after i.v. injections of 1, 14 and the vehicle (FIGS. 5B1 and 5B2). […] A further IPGTT study was done with a glucose challenge after 2 h of the dosing to investigate the prolong activity of hybrids 14, 22, and 23 (FIGS. 5C1 and 5C2).
IPGTT experiments in mice. After the acclimation period (at least 5 days), mice (male C57BL/6J mice (Charles River laboratories) (6 weeks old, 20-24 g)) were randomized into 6 groups (n=6/group) according to their body weight. The mice were fasted for 6 h prior being acutely treated via i.v. route (5 μg/mouse i.v. (200 μg/kg, 50 nmol/kg)) formulated at 20 μg/mL in PBS 1×. The IPGTTs were performed (glucose 2 g/kg i.p.) 5 min, 30 min, 2 h or 4 h after dosing and blood glucose was measured 30, 60, 90 and 120 min after the glucose challenge.

[4] = pH 7.4
Experimental: Mouse plasma stability. […] The oligomer was then diluted 1/50 with a solution of plasma/PBS pH 7.4 (1:1) to afford a final concentration of 5 μM and incubated at 37° C. (4 μL of the stock solution was diluted with 196 μL of plasma/PBS, pH 7.4, 1:1) Each compound was also incubated in the absence of plasma (196 μL of H2O/PBS, pH 7.4, 1:1)). At the indicated time (20 min and 60 min) an aliquot of 70 μL was removed from each experimental reaction and pipetting into 175 μL of acetonitrile at 0° C. to quench the reaction, (t=0 min was determined using the reaction without plasma). The samples were frozen before analysis. The frozen sample were defrost, stirred with a vortex 5 min and finally centrifuged 5 min at 16° C. The supernatant was analyzed by LC-MS. The time course of oligomer degradation was determined by integrating the area of the peak in the extracted ion chromatogram.

[5] = receptor-mediated cAMP production, βTC6 cells

SMILES	Potency (%), percentage of potency (cAMP production) compared to GLP-1-G^2 [1] [%]	Potency (%), percentage of potency compare to GLP-1-G^2 ([1]; cAMP production) [%]	EC50 [1, 5] [nM]	half-life at […] (NEP 24.11) [h]	In vivo activity (indicator) (normal mice (C57BL/6J) [2])	time the decrease of blood glucose is preserved after dosing (normal mice (C57BL/6J) [2]) [h]	effect on blood glucose concentration (normal mice (C57BL/6J) [2])	IPGTT 2 h after dosing (normal mice (C57BL/6J) [3]; fasted mice, 200 μg/kg i.v.)	activity in IPGTT 5 min after dosing, 60 min after the glucose challenge (normal mice (C57BL/6J) [3])	IPGTT 4 h after dosing (normal mice (C57BL/6J) [3]; fasted mice, 200 μg/kg i.v.)	activity in IPGTT 30 min after dosing (normal mice (C57BL/6J) [3]; fasted mice, 200 μg/kg i.v.)	activity in IPGTT 5 min after dosing (normal mice (C57BL/6J) [3]; fasted mice, 200 μg/kg i.v.)	times less potent than GLP-1 ([1]; cAMP production) [times]	EC50 [1] [nM]	half-life (NEP 24.11) [h]	Mouse Plasma t1/2 [4] [h]
CC[C@H](C)[C@H](NC(=O)[C@H](Cc1ccccc1)NC(=O)NC[C@H](C)NC(=O)NC[C@H](C)NC(=O)NC[C@H](C)NC(=O)NC[C@H](C)NC(=O)NC[C@H](CCC(=O)O)NC(=O)NC[C@H](Cc1ccc(O)cc1)NC(=O)[C@H](Cc1ccc(O)cc1)NC(=O)[C@H](CO)NC(=O)[C@H](CO)NC(=O)[C@@H](NC(=O)[C@H](CC(=O)O)NC(=O)[C@H](CO)NC(=O)[C@@H](NC(=O)[C@H](Cc1ccccc1)NC(=O)[C@@H](NC(=O)CNC(=O)[C@H](CCC(=O)O)NC(=O)CNC(=O)[C@@H](N)Cc1c[nH]cn1)[C@@H](C)O)[C@@H](C)O)C(C)C)C(=O)N[C@@H](C)C(=O)N[C@@H](Cc1c[nH]c2ccccc12)C(=O)N[C@@H](CC(C)C)C(=O)N[C@H](C(=O)N[C@@H](CCCCN)C(=O)NCC(=O)N[C@@H](CCCNC(=N)N)C(=O)NCC(N)=O)C(C)C [Compound 23, GG2[Y^uE^uA^uA^uA^uA^u]^14-21] (I: H-HGEGTFTSDVSSY / II: FIAWLVKGRG-NH2; linker I:C-II:N via X2)	7	7	3.4	6.1	+++	4	improved efficacy	good control of the blood glucose concentration								
CC[C@H](C)[C@H](NC(=O)[C@H](Cc1ccccc1)NC(=O)NC[C@H](C)NC(=O)NC[C@H](C)NC(=O)NC[C@H](C)NC(=O)[C@H](CCC(N)=O)NC(=O)CNC(=O)[C@H](CCC(=O)O)NC(=O)[C@H](CC(C)C)NC(=O)[C@H](Cc1ccc(O)cc1)NC(=O)[C@H](CO)NC(=O)[C@H](CO)NC(=O)[C@@H](NC(=O)[C@H](CC(=O)O)NC(=O)[C@H](CO)NC(=O)[C@@H](NC(=O)[C@H](Cc1ccccc1)NC(=O)[C@@H](NC(=O)CNC(=O)[C@H](CCC(=O)O)NC(=O)CNC(=O)[C@@H](N)Cc1c[nH]cn1)[C@@H](C)O)[C@@H](C)O)C(C)C)C(=O)N[C@@H](C)C(=O)N[C@@H](Cc1c[nH]c2ccccc12)C(=O)N[C@@H](CC(C)C)C(=O)N[C@H](C(=O)N[C@@H](CCCCN)C(=O)NCC(=O)N[C@@H](CCCNC(=N)N)C(=O)NCC(N)=O)C(C)C [Compound 14, GG2[A^UA^UA^U]^18-21] (I: H-HGEGTFTSDVSSYLEGQ / II: FIAWLVKGRG-NH2; linker I:C-II:N via X1)	6	6	4.1	4.9	+++	4	improved efficacy	good control of the blood glucose concentration	still active	still active after 6 h of the treatment	full activity	active				
CC[C@H](C)[C@H](NC(=O)[C@H](Cc1ccccc1)NC(=O)[C@H](CCC(=O)O)NC(=O)[C@H](CCCCN)NC(=O)[C@H](C)NC(=O)[C@H](C)NC(=O)[C@H](CCC(N)=O)NC(=O)CNC(=O)[C@H](CCC(=O)O)NC(=O)[C@H](CC(C)C)NC(=O)[C@H](Cc1ccc(O)cc1)NC(=O)[C@H](CO)NC(=O)[C@H](CO)NC(=O)[C@@H](NC(=O)[C@H](CC(=O)O)NC(=O)[C@H](CO)NC(=O)[C@@H](NC(=O)[C@H](Cc1ccccc1)NC(=O)[C@@H](NC(=O)CNC(=O)[C@H](CCC(=O)O)NC(=O)CNC(=O)[C@@H](N)Cc1c[nH]cn1)[C@@H](C)O)[C@@H](C)O)C(C)C)C(=O)N[C@@H](C)C(=O)N[C@@H](Cc1c[nH]c2ccccc12)C(=O)N[C@@H](CC(C)C)C(=O)N[C@H](C(=O)N[C@@H](CCCCN)C(=O)NCC(=O)N[C@@H](CCCNC(=N)N)C(=O)NCC(N)=O)C(C)C [Compound 1, GLP-1-G^2, reference compound]	100	100			+		decreased of blood glucose concentration after 30 min	IPGTT curve similar to the vehicle	no more significant effect		inactive	active	2.5	0.24	3.6	0.267
